Test results taken from patent publication US20200000840A1, “USE OF CYCLODEXTRINS TO REDUCE ENDOCYTOSIS IN MALIGNANT AND NEURODEGENERATIVE DISORDERS” (priority 2016, published 2020).
Values joined by “and” are separate entries in the source; they are usually repeats but may differ in a detail not shown here. Equal values may be shown once. “Also recorded” adds a separate entry of the source. Read-outs that look alike come from different tables or passages of the source. Marks after values point to notes of the source that are not given here.

Assays:
MCF-7 cells = assay: Wound healing / gap closure migration assay (CytoSelect CBA-120); format: cell-based, human; conditions: treated 2 hours
Method: (§1) Published results have shown that β-CD inhibits human MDA-MB 231 cell migration (Guerra et al. 2016). This inhibition was attributed to the ability of β-CD to “deplete cholesterol”. β-CD, however, depletes also phospholipids. […] Cells were cultured in 24-well culture plates (Cytoselect CBA-120, 0.9 mm wound healing/gap closure migration assay) for 24 hours with wound healing insert in place. […] Protocol: Warm up the 24-well plate (CBA-120, Cell BioLabs Inc.) with 0.9 mm CytoSelect Wound Healing Inserts at room temperature for 10 minutes. Using sterile forceps, orient the desired number of inserts in the plate wells with their “wound field” aligned in the same direction. Create a cell suspension containing 0.5-1.0×10^6 cells/ml in media containing 10% fetal bovine serum (FBS). Add 500 μL of cell suspension to each well by carefully inserting the pipette tip through the open end at the top of the insert. For optimal cell dispersion, add 250 μL of cell suspension to either side of the open ends at the top of the insert. Incubate cells in a cell culture incubator for 12-24 hours. Carefully remove the insert from the well to begin the wound healing assay. Use sterile forceps to grab and lift the insert slowly from the plate well. Slowly aspirate and discard the media from the wells. Wash wells with media to remove dead cells and debris. Finally, add media to wells to keep cells hydrated. Repeat wash if wells still have debris or unattached cells. When washing is complete, add media with FBS and/or compounds to continue cell culture and wound healing process. Agents that inhibit or stimulate cell migration can be added directly to the wells. Incubate cells in a cell culture incubator (2 hours) and then wash cells with PBS and then add fresh media without compounds. Incubate 12-24 hours before wash and fixing. Remove the fixation solution and add 400 μL of Cell Stain Solution to each well. Allow the stain to incubate with the cells for 15 minutes at room temperature. Aspirate and discard the solution. Carefully wash each stained well 3× with deionized water. Discard washes and allow cells to dry at room temperature. Cells that migrated into the wounded area or protruded from the border of the wound were visualized and photographed under an inverted microscope. Determine the surface area of the defined wound area: Total Surface Area=0.9 mm x length. Determine the surface area of the migrated cells into the wound area: Migrated Cell Surface Area=length of cell migration (mm)×2 x length. Percent Closure (%)=Migrated Cell Surface Area/Total Surface Area x 100.

MDA-MB-231 cells = assay: as above; format: cell-based, human; conditions: treated 2 hours
Method: as §1

[1] = test system: MDA-MB 231 and MCF-7 human breast epithelial cell lines; assay: Wound healing assay, overall statements for both cell lines; format: cell-based; conditions: 1-4 mM
Method: as §1

[2] = Table 2; cited from earlier work
[3] = cited from earlier work
[4] = in vivo; cited from earlier work
BBB = conditions: cited from earlier work; for Transport across BBB: 2 h
children with NPC = conditions: cited from earlier work
human keratinocytes = conditions: cited from earlier work
cats = conditions: doses of 4-8 g/kg; cited from earlier work
mice, cats, one human = conditions: cats, and one human; cited from earlier work
rats [5] = conditions: long-term parenteral administration, 200 mg/kg; cited from earlier work
renal cancer cells = conditions: triple combination treatment, mice implanted with renal cancer cells; cited from earlier work
leukemia mouse models = conditions: cited from earlier work
[6] = test system: transgenic mouse model of AD; conditions: cited from earlier work
rats [7] = conditions: cited from earlier work
rats [8] = conditions: rat, in vivo; cited from earlier work
rats [9] = conditions: cited from earlier work; remark: listed apart in the source
[10] = cited from earlier work; remark: listed apart in the source
transferrin endocytosis = conditions: 10 mM; cited from earlier work
erythrocytes = conditions: cited from earlier work
human erythrocytes = conditions: cited from earlier work
animal studies = conditions: cited from earlier work
[11] = parenteral delivery; cited from earlier work
[12] = parenteral administration; cited from earlier work
[13] = cyclosporine eye-drops; cited from earlier work
rats [14] = conditions: rat, in vivo, cited from earlier work
rats [15] = conditions: 1.000 g/kg daily; cited from earlier work

SMILES: CC(O)COC[C@H]1O[C@@H]2O[C@H]3[C@H](O)[C@@H](O)[C@@H](O[C@H]4[C@H](O)[C@@H](O)[C@@H](O[C@H]5[C@H](O)[C@@H](O)[C@@H](O[C@H]6[C@H](O)[C@@H](O)[C@@H](O[C@H]7[C@H](O)[C@@H](O)[C@@H](O[C@H]8[C@H](O)[C@@H](O)[C@@H](O[C@H]1[C@H](O)[C@H]2O)O[C@@H]8COCC(C)O)O[C@@H]7COCC(C)O)O[C@@H]6COCC(C)O)O[C@@H]5COCC(C)O)O[C@@H]4COCC(C)O)O[C@@H]3COCC(C)O (stereo partly drawn) [HPbCD, hydroxypropyl-beta-cyclodextrin]
- average wound closure (MCF-7 cells; 1 mM): 73.33%
- wound closure (Percent Closure), replications r1-r3 (MCF-7 cells; 1 mM): 68.00% and 74.00% and 78.00%
- average wound closure (MCF-7 cells; 2 mM): 48.33%
- wound closure (Percent Closure), replications r1-r3 (MCF-7 cells; 2 mM): 41.00% and 48.00% and 56.00%
- average wound closure (MCF-7 cells; 4 mM): 33.67%
- wound closure (Percent Closure), replications r1-r3 (MCF-7 cells; 4 mM): 32.00% and 28.00% and 41.00%
- average wound closure (MDA-MB-231 cells; 1 mM): 67.67%
- wound closure (Percent Closure), replications r1-r3 (MDA-MB-231 cells; 1 mM): 62.00% and 68.00% and 73.00%
- average wound closure (MDA-MB-231 cells; 2 mM): 56.00%
- wound closure (Percent Closure), replications r1-r3 (MDA-MB-231 cells; 2 mM): 48.00% and 59.00% and 61.00%
- average wound closure (MDA-MB-231 cells; 4 mM): 39.00%
- wound closure (Percent Closure), replications r1-r3 (MDA-MB-231 cells; 4 mM): 48.00% and 44.00% and 25.00%
- migration versus concentration [1]: migration decreased with higher concentration
- Solubility in water [2]: >600 mg/mL
- oral absorption in rats [3]: ≤3%
- Vol. of distribution (VD) [4]: 0.2 L/kg
- half-life (t1/2) [4]: 1.7 to 1.9 h
- BBB breakdown (BBB): 2.5 mM
- side effects (children with NPC; about 2500 mg/kg bi-weekly, over a year, two children with NPC): no discernable side effects
- tolerability (children with NPC; children with NPC, doses of up to 1000 mg/kg/d): well tolerated
- hearing (children with NPC; steady state IV doses of 2.5 g/kg bi-weekly for >1 yr): Hearing unaffected despite receiving steady state IV doses of
- apoptotic cell death (human keratinocytes): not apoptotic
- hearing loss (cats): permanent hearing loss
- hearing loss (mice, cats, one human): risk of causing permanent hearing loss
- bone mineral density (BMD) (rats [5]): decrease bone mineral density
- tumor regression (renal cancer cells): necessary in triple combination treatment for tumor regression
- survival (leukemia mouse models): prolonged survival
- neuroprotection [6]: neuroprotective effects
- acute i.v. toxicity in rats (rats [7]): 10 g/kg
- toxic effects at 1 g/kg (rats [8]): did not cause adverse clinical signs

SMILES: OC[C@H]1O[C@@H]2O[C@H]3[C@H](O)[C@@H](O)[C@@H](O[C@H]4[C@H](O)[C@@H](O)[C@@H](O[C@H]5[C@H](O)[C@@H](O)[C@@H](O[C@H]6[C@H](O)[C@@H](O)[C@@H](O[C@H]7[C@H](O)[C@@H](O)[C@@H](O[C@H]1[C@H](O)[C@H]2O)O[C@@H]7CO)O[C@@H]6CO)O[C@@H]5CO)O[C@@H]4CO)O[C@@H]3CO [α-cyclodextrin, alpha-cyclodextrin]
- nephrosis, single dose s.c. (rats [9]; 0.100 g/kg): 0.100 no changes
- nephrosis, single dose s.c. (rats [9]; 1.000 g/kg): 1.000 changes seen
- Solubility in water [2]: 130 to 145 mg/mL
- oral absorption in rats [3]: 2-3%
- i.v. toxicity, 1 g daily [10]: 1 died after 2 d
- Transport across BBB (BBB; 0.5 mM): 21.5%
- Transport across BBB (BBB; 1 mM): 16.5%
- BBB breakdown (BBB): 1 mM
- toxicity in the BBB model, comparison of CDs (BBB): most toxic among the three native CDs
- reduction of transferrin endocytosis (transferrin endocytosis): 20%
- phospholipids released (erythrocytes; 10 mM): 30%
- release of phospholipids on increasing concentration (erythrocytes; above 10 mM): does not increase release of phospholipids
- cholesterol extraction (erythrocytes): negligible even at hemolytic concentrations
- tolerance by human erythrocytes (human erythrocytes): better then β-CD
- hemolytic activity (human erythrocytes; human erythrocytes, listed as α-CD): β-CD>α-CD>γ-CD; also recorded: lower than that of both β-CD and HP-β-CD
- apoptotic cell death (human keratinocytes): not apoptotic
- ototoxicity (animal studies): did not show ototoxicity
- excretion [11]: excreted almost completely in an intact form into the urine
- renal toxicity [12]: showed renal toxicity
- tolerability in eye-drops [13]: well tolerated
- single dose i.v. LD50 (rats [14]; iv): 0.788/1.008 * g/kg
- LD50 (rats [14]): 1008 mg/kg
- nephrosis, 1, 2, 3, 4, or 7 daily doses s.c. (rats [15]): 1.000 severe nephrosis
- acute i.v. toxicity in rats (rats [7]): 0.5 to 0.8 g/kg
